Results taken from ChEMBL document CHEMBL1201862, “PubChem BioAssay data set” (2004).
Active and inactive are the calls of the source.

Columns and labels:
[1] = target: T1, High affinity choline transporter 1 (Homo sapiens, UniProt Q9GZV3); assay: CHT inhibitors, dose response, cell-based, 5-point CRC, membrane potential dye (AID 504840); assay type: functional
T1 sequence (Q9GZV3 whole entry): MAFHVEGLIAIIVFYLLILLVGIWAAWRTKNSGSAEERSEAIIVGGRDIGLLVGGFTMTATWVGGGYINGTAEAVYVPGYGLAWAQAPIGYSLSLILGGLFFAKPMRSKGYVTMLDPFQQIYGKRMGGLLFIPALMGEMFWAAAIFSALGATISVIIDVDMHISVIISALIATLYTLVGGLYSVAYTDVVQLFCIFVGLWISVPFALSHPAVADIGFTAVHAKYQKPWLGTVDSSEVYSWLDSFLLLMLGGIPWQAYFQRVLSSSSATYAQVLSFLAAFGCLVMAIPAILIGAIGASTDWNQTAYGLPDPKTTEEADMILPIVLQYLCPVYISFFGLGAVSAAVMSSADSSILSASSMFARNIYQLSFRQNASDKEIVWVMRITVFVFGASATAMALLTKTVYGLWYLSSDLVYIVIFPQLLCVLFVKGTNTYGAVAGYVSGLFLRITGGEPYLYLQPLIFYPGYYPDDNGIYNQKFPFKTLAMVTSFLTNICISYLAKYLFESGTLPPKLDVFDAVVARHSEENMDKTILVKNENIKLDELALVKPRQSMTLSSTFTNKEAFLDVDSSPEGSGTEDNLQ

cells = assay type: functional, cell-based
[2] = target: T2, Nuclear receptor subfamily 0 group B member 1 (Homo sapiens, UniProt P51843); assay type: functional, cell-based;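 further: HEK293T cells transfected with SF-1 and DAX-1 plus StAR promoter luciferase reporter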
T2 sequence (P51843 whole entry): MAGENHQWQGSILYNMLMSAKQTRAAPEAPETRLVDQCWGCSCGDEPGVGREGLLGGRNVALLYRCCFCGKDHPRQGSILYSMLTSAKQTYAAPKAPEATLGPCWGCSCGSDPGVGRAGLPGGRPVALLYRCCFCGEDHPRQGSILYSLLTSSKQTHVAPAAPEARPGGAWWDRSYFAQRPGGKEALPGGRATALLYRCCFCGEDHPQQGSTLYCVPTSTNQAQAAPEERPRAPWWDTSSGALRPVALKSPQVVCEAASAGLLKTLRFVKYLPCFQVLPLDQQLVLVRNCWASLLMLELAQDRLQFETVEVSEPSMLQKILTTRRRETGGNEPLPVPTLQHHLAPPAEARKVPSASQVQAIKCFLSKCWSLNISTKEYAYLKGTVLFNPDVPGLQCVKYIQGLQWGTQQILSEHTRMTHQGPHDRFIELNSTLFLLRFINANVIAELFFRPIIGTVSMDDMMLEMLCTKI

[3] = target: T1, High affinity choline transporter 1; assay: CHT inhibitors, dose response, cell-based, 10-point CRC, membrane potential dye (AID 588401); assay type: functional;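 further: membrane potential dye fluorescence of choline-evoked depolarization via CHT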

O=C(Nc1c(C(=O)N2CCC(N3CCCCC3)CC2)oc2ccccc12)c1ccc(F)cc1
IC50 [1]: 0.91 µM (active)
IC50 (cells): > 67.5 µM (inactive)
IC50 [2]: > 67.5 µM (inactive)
IC50 [3]: 1.63 µM (active)
